Results taken from patent US10375956B2, “Herbicidally active 2-(substituted-phenyl)-cyclopentane-1,3-dione compounds and derivatives thereof” (Syngenta Limited, priority 2013, dated 2019).

Key:
Type in all cases: in vivo
[1] = test system: Setaria faberi (SETFA); assay: Test 1 glasshouse assay, post-emergence herbicidal activity; conditions: 312 h, post-emergence (Example 1B Table 1), after 13 days, read-out: Percentage phytotoxicity SETFA
Procedure: (§1) Seeds of a variety of test species are sown in standard soil in pots. After cultivation for one day (pre-emergence) or after 8 days cultivation (post-emergence) under controlled conditions in a glasshouse (at 24/16° C., day/night; 14 hours light; 65% humidity), the plants are sprayed with an aqueous spray solution derived from the formulation of the “technical” (i.e. unformulated) active ingredient in acetone/water (50:50) solution containing 0.5% Tween 20 (polyoxyethylene sorbitan monolaurate, CAS Registry Number 9005-64-5). The test plants are then grown on under controlled conditions in a glasshouse (at 24/16° C., day/night; 14 hours light; 65% humidity) and watered twice daily. After 13 days for pre- or post-emergence, the test is evaluated visually, and an assessed percentage phytotoxicity score is given for each herbicidal application on each plant species (where 100%=total damage to plant; 0%=no damage to plant).
(§2) Test plants include the following: Abutilon theophrasti (ABUTH) and Amaranthus retroflexus (AMARE); these are all dicotyledonous (broadleaved) weeds. Setaria faberi (SETFA), Alopecurus myosuroides (ALOMY), and Echinochloa crus-galli (ECHCG); these are all grassy monocotyledonous weeds. Also: Zea mays (ZEAMX, corn/maize), which can be a grassy weed (“volunteer” corn) in some circumstances.

[2] = test system: Amaranthus retroflexus (AMARE); assay: as above; conditions: 312 h, post-emergence (Example 1B Table 1), after 13 days, read-out: Percentage phytotoxicity AMARE
Procedure: as §1, §2

[3] = test system: Avena fatua (AVEFA); assay: Test 2 glasshouse assay (IF50 formulation, X-77), post-emergence herbicidal activity; conditions: 360 h, 15 DAA, visual score, read-out: Post-emergence herbicidal activity (percentage phytotoxicity) AVEFA; for pest or weed control at 30 g/ha: application rate 30 g/ha; for pest or weed control at 125 g/ha: application rate 125 g/ha; for pest or weed control at 250 g/ha: application rate 250 g/ha
Summary of the method: (§3)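 Plants in soil pots were sprayed 1 day (pre-emergence) or ~12 days (post-emergence) after sowing with IF50 formulation diluted in 0.2% v/v X-77. Cool species were grown at 20/16 °C day/night, 16 h light, 65% humidity. Visual % phytotoxicity was scored at 20DAA (pre) or 15DAA (post).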

[4] = test system: Lolium perenne (LOLPE); assay: as above; conditions: 360 h, 15 DAA, visual score, read-out: Post-emergence herbicidal activity (percentage phytotoxicity) LOLPE; for pest or weed control at 30 g/ha: application rate 30 g/ha; for pest or weed control at 125 g/ha: application rate 125 g/ha; for pest or weed control at 250 g/ha: application rate 250 g/ha
Summary of the method: as §3

[5] = test system: Abutilon theophrasti (ABUTH); assay: Test 1 glasshouse assay, post-emergence herbicidal activity; conditions: 312 h, post-emergence (Example 1B Table 1), after 13 days, read-out: Percentage phytotoxicity ABUTH
Procedure: as §1, §2

[6] = test system: Zea mays (ZEAMX, corn/maize); assay: as above; conditions: 312 h, post-emergence (Example 1B Table 1), after 13 days, read-out: Percentage phytotoxicity ZEAMX
Procedure: as §1, §2

Row | Structure (SMILES) | pest or weed control at 62.5 g/ha [1] [%] | pest or weed control at 250 g/ha [1] [%] | pest or weed control at 62.5 g/ha [2] [%] | pest or weed control at 250 g/ha [2] [%] | pest or weed control at 30 g/ha [3] [%] | pest or weed control at 125 g/ha [3] [%] | pest or weed control at 30 g/ha [4] [%] | pest or weed control at 125 g/ha [4] [%] | pest or weed control at 30 g/ha [5] [%] | pest or weed control at 250 g/ha [5] [%] | pest or weed control at 30 g/ha [1] [%] | pest or weed control at 30 g/ha [6] [%] | pest or weed control at 250 g/ha [6] [%] | pest or weed control at 30 g/ha [2] [%] | pest or weed control at 250 g/ha [3] [%] | pest or weed control at 250 g/ha [4] [%]
1 | C#CCC1CC(=O)C(c2c(C)cc(-c3ccc(F)cc3)cc2C)C1=O (stereo not drawn) [Compound A1, 2-[4-(4-fluorophenyl)-2,6-dimethyl-phenyl]-4-prop-2-ynylcyclopentane-1,3-dione] | 90 | 100 | 30 | 70 | 70 | 100 | 70 | 80 |  |  |  |  |  |  |  | 
2 | C#CCC1CC(=O)C(c2c(Cl)cc(-c3ccc(F)cc3)cc2OC)C1=O (stereo not drawn) [Compound A7] |  | 100 |  | 80 | 20 |  | 30 |  | 30 | 80 | 100 | 100 | 100 | 20 | 100 | 80
3 | C#CCC1CC(=O)C(c2c(Cl)cc(-c3ccc(Cl)cc3)cc2OC)C1=O (stereo not drawn) [Compound A11, 2-[2-chloro-4-(4-chlorophenyl)-6-methoxyphenyl]-4-prop-2-ynylcyclopentane-1,3-dione] |  | 100 |  | 80 | 20 |  | 30 |  | 30 | 80 | 100 | 100 | 100 | 50 | 70 | 40
4 | C#CCC1CC(=O)C(c2cc(-c3ccc(Cl)cc3Cl)ccc2C)C1=O (stereo not drawn) [Compound A15] |  | 70 |  | 40 |  |  |  |  |  | 60 |  |  | 80 |  | 10 | 20
5 | C#CCC1CC(=O)C(c2cc(-c3ncc(Cl)cc3F)ccc2C)C1=O (stereo not drawn) [Compound A18] |  | 80 |  | 60 |  |  |  |  | 0 | 60 | 60 | 60 | 80 | 0 | 30 | 10
6 | C#CCC1CC(=O)C(c2c(F)cc(-c3ccc(F)cc3)cc2OC)C1=O (stereo not drawn) [Compound A20, 2-[2-fluoro-4-(4-fluorophenyl)-6-methoxyphenyl]-4-prop-2-ynylcyclopentane-1,3-dione] |  | 100 |  | 70 |  |  |  |  | 0 | 60 | 80 | 90 | 100 | 0 |  | 
7 | C#CCC1CC(=O)C(c2c(F)cc(-c3ccc(F)cc3F)cc2OC)C1=O (stereo not drawn) [Compound A21] |  | 100 |  | 30 |  |  |  |  | 0 | 40 | 80 | 100 | 100 | 10 |  | 
8 | C#CCC1CC(OC(C)=O)=C(c2c(C)cc(-c3ccc(F)cc3)cc2C)C1=O (stereo not drawn) [Compound A45] | 90 | 100 | 20 | 80 | 70 | 90 | 80 | 100 |  |  |  |  |  |  |  | 
